# Test results: EP1407768A2, “The potassium channel opener retigabine for the treatment of diseases” (GLAXO GROUP LIMITED, priority 1999, dated 2001)
# Like-named read-outs stand apart in the source and are kept apart here.
# Tests used:
# [1] = molecular target: T1, KCNQ2/3 potassium channel (Homo sapiens, UniProt O43525+O43526); assay: Two-microelectrode voltage-clamp of Xenopus oocytes expressing equimolar KCNQ2 plus KCNQ3; assay type: cell-based; conditions: for fold induction at 10 µM: read-out: increase of outward KCNQ current amplitude, 10µM retigabine; for increase of the rate of current activation: data fitted to a single exponential
# T1 construct: expressed in transfected cells; host or cells: Xenopus laevis oocytes injected with capped cRNA (KCNQ2 in pCIN3, KCNQ3 in pCIH6)
# Source text: Human KCNQ2 and KCNQ3 potassium channels were cloned from a human brain CDNA library using standard methodology. All clones were sequenced and were identical to those reported in the literature (Charlier, C., Singh, N.A., Ryan, S.G., Lewis, T.B., Reus, B. E., Leach, R.J. Leppert, M. (1998). A pore mutation in a novel KQT-like potassium channel gene in an idiopathic epilepsy family. Nature Genetics 18: 53-55 and Singh, N.A., Charlier, C., Stauffer, D., DuPont, B.R., Leach, R.J., Melis, R., Ronen, G.M., Bjerre, I., Quattlebaum, T., Murphy, J.V., McHarg, M.L., Gagnon, D., Rosales, T.O., Peiffer, A., Anderson, E & Leppert, M. (1998) Nature Genetics, 18: 25-29).
# Adult female Xenopus laevis (Blades Biologicals) were anaesthetised using 0.2% tricaine (3-aminobenzoic acid ethyl ester), killed and the ovaries rapidly removed. Oocytes were de-folliculated by collagenase digestion (Sigma type I, 1.5 mg ml^-1) in divalent cation-free OR2 solution (82.5mM NaCl, 2.5mM KCI, 1.2mM NaH2PO4, 5mM HEPES; pH 7.5 at 25°C). Single stage V and VI oocytes were transferred to ND96 solution (96mM NaCl, 2mM KCI, 1mM MgCl2, 1.8mM CaCl2, 5mM HEPES; pH 7.5 at 25°C) which contained 50µg ml^- ^1 gentamycin and stored at 18°C.
# KCNQ2 (in pCIN3 vector) and KCNQ3 (in pCIH6) were linearised and transcribed to RNA using T7 or T3 polymerase (Promega Wizard kit). m'G(5')pp(5')GTP capped cRNA was injected into oocytes (20-50nl of 1µgµl^-1 RNA per oocyte) and whole-cell currents were recorded using two-microelectrode voltage-clamp (Geneclamp amplifier, Axon instruments Inc.) 3 to 5 days post-RNA injection. […] In all experiments oocytes were voltage-clamped at a holding potential of -90mV in ND96 solution (superfused at 2ml per min.) and test compounds were applied by addition to this extracellular solution. Current-voltage curves were constructed by applying 800ms voltage-clamp pulses from the holding potential of -90mV to test potentials between -85mV and +30mV..
# Whole-cell currents were recorded from oocytes expressing KCNQ2 alone, KCNQ3 alone and an equimolar combination of KCNQ2 plus KCNQ3. Mean current amplitude (at +20mV) was 152 +/- 21 nA for KCNQ2 alone, 157 +/-19nA for KCNQ3 alone and 1467 +/- 420nA for KCNQ2 & KCNQ3. Further characterisation of the KCNQ2/KCNQ3 heteromeric channel (current-voltage curve, conductance plot, linopirdine block) gave similar results to those reported in the literature (Yang, W.-P., Levesque, P.C., Little, W.A., Conder, M.L., Ramakrishnan, P., Neubauer, M.G. & Blanar, M.A, (1998) Functional expression of two KvLQT1-related potassium channels responsible for an inherited idiopathic epilepsy. J. Biol. Chem., 31: 19419-19423 and Wang, H.-S., Pan, Z., Shi, W., Brown, B.S.,. Wymore, R.S., Cohen, I.S., Dixon, J.E. & McKinnon, D (1998) KCNQ2 and KCNQ3 potassium channel subunits: molecular correlates of the M-channel. Science 282: 1890-1893).
# The effects of retigabine were studied in oocytes expressing equimolar KCNQ2 plus KCNQ3. Application of 10µM retigabine led to a pronounced 20mV hyperpolarising shift in the threshold for KCNQ current activation (n=5), such that an augmentation of KCNQ current was seen over the normal physiological range of membrane potentials. For example, at a test potential of -60mV, outward KCNQ current amplitude increased 8-fold in the presence of retigabine (6.2-fold at -70mV; 7.1-fold at -50mV; n=5). These changes in KCNQ current amplitude were associated with an increase in the rate of current activation: Retigabine increased the rate of current activation 15-fold at a test potential of -40mV, and 3-fold at a test potential of -30mV (data fitted to a single exponential in each case).
# Application of retigabine led to a marked alteration in the properties of the KCNQ2/3 tail currents. In these experiments the voltage clamp protocols comprised a 1s prepulse from -100mV to +40mV to fully activate the KCNQ2/3 channel, followed by a 6s pulse to test potentials between -30mV and -110mV.
# [2] = tested on: carageenan model of inflammatory pain; assay: Carageenan model of inflammatory pain; assay type: in vivo
# Source text: Br. J. Pharmacol. 120: P78).
# [3] = molecular target: T1, KCNQ2/3 potassium channel; assay: Current clamp of oocytes expressing KCNQ2 plus KCNQ3: hyperpolarisation of the cell; assay type: cell-based
# [4] = tested on: pentylene tetrazol-induced seizures in rats; conditions: protection against pentylene tetrazol-induced seizures in rats; cited from earlier work
# KCNQ2 = molecular target: T2, KCNQ2 (Homo sapiens, UniProt O43526); assay: Voltage-clamp of Xenopus oocytes expressing KCNQ2 alone (pSP64t vector); assay type: cell-based; conditions: 10µM retigabine
# T2 construct: expressed in transfected cells; host or cells: Xenopus oocytes, expression vector pSP64t
# T2 sequence (O43526 1-844 isoform O43526-3): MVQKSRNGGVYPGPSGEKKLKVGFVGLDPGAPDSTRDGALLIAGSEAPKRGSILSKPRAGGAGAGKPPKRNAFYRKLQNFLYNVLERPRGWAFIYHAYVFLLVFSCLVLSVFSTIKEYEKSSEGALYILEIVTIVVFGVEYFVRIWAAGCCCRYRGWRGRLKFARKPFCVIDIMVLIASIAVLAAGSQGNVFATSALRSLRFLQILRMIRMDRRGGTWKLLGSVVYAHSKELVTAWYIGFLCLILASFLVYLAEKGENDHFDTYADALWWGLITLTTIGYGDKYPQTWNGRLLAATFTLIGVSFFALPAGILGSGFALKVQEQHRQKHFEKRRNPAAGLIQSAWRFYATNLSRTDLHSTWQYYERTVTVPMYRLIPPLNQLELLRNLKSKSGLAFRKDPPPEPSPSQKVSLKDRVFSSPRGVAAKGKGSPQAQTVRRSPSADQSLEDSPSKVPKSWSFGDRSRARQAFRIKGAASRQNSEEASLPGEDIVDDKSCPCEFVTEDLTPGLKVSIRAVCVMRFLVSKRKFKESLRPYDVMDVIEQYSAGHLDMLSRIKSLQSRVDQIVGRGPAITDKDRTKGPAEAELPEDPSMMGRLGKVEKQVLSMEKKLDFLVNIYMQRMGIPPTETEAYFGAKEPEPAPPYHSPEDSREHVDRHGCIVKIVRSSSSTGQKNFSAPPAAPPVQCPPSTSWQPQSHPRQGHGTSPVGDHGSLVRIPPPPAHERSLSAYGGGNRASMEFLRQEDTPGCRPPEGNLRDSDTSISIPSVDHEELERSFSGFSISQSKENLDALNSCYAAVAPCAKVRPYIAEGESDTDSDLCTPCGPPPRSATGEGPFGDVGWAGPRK
# T1 sequence (O43526 1-844 isoform O43526-3): as above
# T1 sequence (O43525 whole entry): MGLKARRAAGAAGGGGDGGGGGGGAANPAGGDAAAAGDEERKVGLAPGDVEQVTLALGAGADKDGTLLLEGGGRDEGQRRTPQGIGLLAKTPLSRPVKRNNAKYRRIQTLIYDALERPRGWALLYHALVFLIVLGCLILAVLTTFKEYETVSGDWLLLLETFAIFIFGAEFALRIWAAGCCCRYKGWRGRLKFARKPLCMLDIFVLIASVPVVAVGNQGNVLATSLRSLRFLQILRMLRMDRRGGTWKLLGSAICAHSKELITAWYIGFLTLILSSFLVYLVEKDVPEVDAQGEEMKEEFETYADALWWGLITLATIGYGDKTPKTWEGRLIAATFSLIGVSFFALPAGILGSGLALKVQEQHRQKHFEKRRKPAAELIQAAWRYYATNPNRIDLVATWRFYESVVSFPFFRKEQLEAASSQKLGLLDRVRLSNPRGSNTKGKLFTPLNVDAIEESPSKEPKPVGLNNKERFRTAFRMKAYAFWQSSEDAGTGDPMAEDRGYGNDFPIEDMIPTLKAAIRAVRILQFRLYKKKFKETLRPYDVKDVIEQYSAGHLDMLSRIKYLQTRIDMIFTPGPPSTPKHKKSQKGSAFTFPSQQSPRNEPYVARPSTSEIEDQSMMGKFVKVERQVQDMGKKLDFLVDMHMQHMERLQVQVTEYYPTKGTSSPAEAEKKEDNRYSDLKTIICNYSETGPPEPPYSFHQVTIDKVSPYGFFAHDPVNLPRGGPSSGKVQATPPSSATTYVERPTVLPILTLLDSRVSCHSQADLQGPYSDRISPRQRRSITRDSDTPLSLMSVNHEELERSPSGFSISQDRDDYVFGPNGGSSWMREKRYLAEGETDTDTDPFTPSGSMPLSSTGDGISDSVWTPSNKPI
smiles,measurement,setting,value
"CCOC(=O)Nc1ccc(NCc2ccc(F)cc2)cc1N [retigabine, 2-amino-4-(4-fluorobenzylamino)-1-ethoxycarbonylaminobenzene]",hyperpolarising shift in the threshold for KCNQ current activation,"[1]; 10µM retigabine, oocytes expressing equimolar KCNQ2 plus KCNQ3, n=5",20 mV
same,fold induction at 10 µM,"[1]; test potential -50mV, n=5",7.1
same,fold induction at 10 µM,"[1]; test potential -60mV, n=5",8
same,fold induction at 10 µM,"[1]; test potential -70mV, n=5",6.2
same,increase of the rate of current activation,[1]; test potential -30mV,3 fold
same,increase of the rate of current activation,[1]; test potential -40mV,15 fold
same,KCNQ2/3 tail current deactivation,"[1]; test potentials -30mV, -40mV after 1s prepulse from -100mV to +40mV",deactivation does not occur
same,rate of KCNQ2/3 channel deactivation in comparison to control,[1]; test potentials -50mV to -110mV after 1s prepulse from -100mV to +40mV,significantly slowed
same,ED50,[2],4.5 mg/kg
same,EC50,[3],5.2 µM
same,Hill slope,[3]; hyperpolarisation of oocytes held under current clamp,1.1 ± 0.1
same,ED50,[4],6.2 mg/kg
same,mean delay (rate of current activation),"KCNQ2; at -40mV, control 132+/-16ms",75 ± 7 ms
same,KCNQ current amplitude,"KCNQ2; at -50mV, n=7, control = 145+/-34nA",501+/-116 nA
same,hyperpolarising shift in the threshold for KCNQ2 current activation,KCNQ2; oocytes expressing KCNQ2 alone,20 mV
